The series can be described thus: in vivo. To be noted: for concentration at 0.033 h: Day 1, hour 0.033, LLQ 1 ng/mL. Here is the method:
Using a standard, by weight, randomization procedure, 21 male animals (weighing 3.25 to 3.73 kg at randomization), from a total of 36 male experimentally naïve New Zealand White Hra:(NZW)SPF albino rabbits (approximately 6 to 7 months of age), were assigned to the study as presented in Table 5.
To induce an anaphylactic syndrome, animals in Groups 1 to 4 were administered horse serum (0.2μ sterile filtered) via subcutaneous (“SC”) injection at dose volume of 2 mL/animal, followed two days later by an intravenous (“IV”) injection at a dose volume of 2 mL/animal.
Forty-one to 44 days following the beginning of the induction period, the animals were sedated by administration of 2 to 3 mg/kg via IM injection of acepromazine, 0.02 mg/kg via IM injection of buprenorphine and sevoflurane via inhalation.
Following induction of anesthesia, all animals were placed in dorsal recumbency position and an incision was made to locate the right or left femoral artery. An arterial sheath was introduced and advanced into the isolated artery and used to monitor blood pressure. Additionally, an off midline cervical neck incision was made to locate and isolate the left or right external jugular vein for collection of blood and for emergency drug administration, as needed.
Following induction of anesthesia and catheter placement, single or repeated challenge doses of 0.5 to 2 mL of filtered horse serum were administered intravenously to each animal in Groups 1 to 4.
Prior to tablet administration, the mouth of the animal was wet with 0.5 mL of tap water and the mouth was held shut for 15 to 30 seconds to help dissolve the tablet. For IM administration, the injections were made in the right rear flank of each animal.
Each 50 μL aliquot of standard, QC sample, and study sample was mixed with 200 μL of working internal standard solution (25 ng/mL in acetonitrile/methanol (50/50, v/v)). The sample was centrifuged, and a 200 μL aliquot of the resulting supernatant was transferred to a clean 96-well plate. The sample was evaporated and reconstituted with […] of water/formic acid (100/0.1, v/v). An aliquot was injected onto an LC-MS/MS system for analysis.
The liquid chromatography system used an ACE 5 C18 column, 50×2.1 mm (5 μm particle size) with an isocratic flow consisting of water/formic acid (100/0.1, v/v) and methanol/formic acid (100/0.05, v/v) at a flow rate of 400 μL/minute. The analyte and internal standard were detected using an SCIEX API 5000 triple quadrupole LC-MS/MS system equipped with an ESI (TurboIonSpray®) ionization source operated in the positive ion mode.
The lower limit of quantitation was 1 ng/ml and a linear 1/x2 weighting regression analysis was used.
Concentrations less than the lower limit of quantitation (LLOQ, <1.00 ng/mL) were reported as and set to zero. For each animal, the following pharmacokinetic parameters were determined: maximum observed plasma concentration (Cmax), time of maximum observed plasma concentration (Tmax), and area under the plasma concentration-time curve (AUC).
The formulation ratio was calculated using the following formula: Formulation Ratio=Mean AUC0-60 min Buccal Citrate÷Mean AUC0-60 min Buccal No citrate. The Induced Anaphylaxis to Non-induced anaphylaxis ratio was calculated using the following formula: Induced Anaphylaxis:Non-Induced Anaphylaxis=Mean AUC0-60 min Induced Anaphylaxis IM÷Mean AUC0-60 min Non-induced Anaphylaxis IM. Relative bioavailability (expressed as a percent) was calculated using the following formula: Relative Bioavailability=[AUC0-60 min/DoseBuccal (citrate and/or no citrate)]÷[AUC0-60 min/DoseIntramuscular (induced and/or non-induced)]*100.

Turning to `CNC[C@H](O)c1ccc(O)c(O)c1` [Epinephrine], under “Group 7, dose 0.3 mg, subject 701, male, Day 1, hour 0.333, LLQ 2 ng/mL”, the “Concentration (ng/mL), plasma epinephrine” value is “BLQ”. In addition, the concentration at 0 h (male, New Zealand White Hra:(NZW)SPF, rabbit, plasma, intramuscular, 0.3 mg, Concentration (ng/mL), plasma epinephrine, Group 7, dose 0.3 mg, subject 701, male, Day 1, hour 0, LLQ 2 ng/mL) was determined as 2.48 ng/mL; the concentration at 0 h (male, New Zealand White Hra:(NZW)SPF, rabbit, plasma, intramuscular, 0.3 mg, Concentration (ng/mL), plasma epinephrine, Group 7, dose 0.3 mg, subject 703, male, Day 1, hour 0, LLQ 1 ng/mL) came to 1.92 ng/mL; the concentration at 0 h (male, New Zealand White Hra:(NZW)SPF, rabbit, plasma, intramuscular, 0.3 mg, Concentration (ng/mL), plasma epinephrine, Subject Group 3, dose 0.3 mg, male rabbits, Day 1, Hour 0) worked out at 2.29 ng/mL. The same molecule registered a concentration at 0.033 h (male, New Zealand White Hra:(NZW)SPF, rabbit, plasma, intramuscular, 0.3 mg, Concentration (ng/mL), plasma epinephrine, Group 7, dose 0.3 mg, subject 701, male) of 2.75 ng/mL and a concentration at 0.033 h (male, New Zealand White Hra:(NZW)SPF, rabbit, plasma, intramuscular, 0.3 mg, Concentration (ng/mL), plasma epinephrine, Group 7, dose 0.3 mg, subject 703, male) of 8.06 ng/mL. Besides, the concentration at 0.083 h was found to be 4.32 ng/mL (male, New Zealand White Hra:(NZW)SPF, rabbit, plasma, intramuscular, 0.3 mg, Concentration (ng/mL), plasma epinephrine, Group 7, dose 0.3 mg, subject 701, male, Day 1, hour 0.083, LLQ 2 ng/mL) and 6.6 ng/mL (male, New Zealand White Hra:(NZW)SPF, rabbit, plasma, intramuscular, 0.3 mg, Concentration (ng/mL), plasma epinephrine, Group 7, dose 0.3 mg, subject 703, male, Day 1, hour 0.083, LLQ 1 ng/mL). Also, the concentration at 0.125 h is, setting by setting: (male, New Zealand White Hra:(NZW)SPF, rabbit, plasma, intramuscular, 0.3 mg, Concentration (ng/mL), plasma epinephrine, Group 7, dose 0.3 mg, subject 701, male, Day 1, hour 0.125, LLQ 2 ng/mL) 5.73 ng/mL; (male, New Zealand White Hra:(NZW)SPF, rabbit, plasma, intramuscular, 0.3 mg, Concentration (ng/mL), plasma epinephrine, Group 7, dose 0.3 mg, subject 703, male, Day 1, hour 0.125, LLQ 1 ng/mL) 3.53 ng/mL. Further, the concentration at 0.167 h by setting is: (male, New Zealand White Hra:(NZW)SPF, rabbit, plasma, intramuscular, 0.3 mg, Concentration (ng/mL), plasma epinephrine, Group 7, dose 0.3 mg, subject 701, male, Day 1, hour 0.167, LLQ 2 ng/mL) 4.76 ng/mL; (male, New Zealand White Hra:(NZW)SPF, rabbit, plasma, intramuscular, 0.3 mg, Concentration (ng/mL), plasma epinephrine, Group 7, dose 0.3 mg, subject 703, male, Day 1, hour 0.167, LLQ 1 ng/mL) 2.32 ng/mL. Besides, the concentration at 0.25 h runs as follows: (male, New Zealand White Hra:(NZW)SPF, rabbit, plasma, intramuscular, 0.3 mg, Concentration (ng/mL), plasma epinephrine, Group 7, dose 0.3 mg, subject 701, male, Day 1, hour 0.25, LLQ 2 ng/mL) 2.44 ng/mL; (male, New Zealand White Hra:(NZW)SPF, rabbit, plasma, intramuscular, 0.3 mg, Concentration (ng/mL), plasma epinephrine, Group 7, dose 0.3 mg, subject 703, male, Day 1, hour 0.25, LLQ 1 ng/mL) 3.5 ng/mL. Besides, the concentration at 0.5 h is 2.06 ng/mL (male, New Zealand White Hra:(NZW)SPF, rabbit, plasma, intramuscular, 0.3 mg, Concentration (ng/mL), plasma epinephrine, Group 7, dose 0.3 mg, subject 701, male, Day 1, hour 0.5, LLQ 2 ng/mL) and 2.86 ng/mL (male, New Zealand White Hra:(NZW)SPF, rabbit, plasma, intramuscular, 0.3 mg, Concentration (ng/mL), plasma epinephrine, Group 7, dose 0.3 mg, subject 703, male, Day 1, hour 0.5, LLQ 1 ng/mL). Further, the concentration at 0.75 h reads like this: (male, New Zealand White Hra:(NZW)SPF, rabbit, plasma, intramuscular, 0.3 mg, Concentration (ng/mL), plasma epinephrine, Group 7, dose 0.3 mg, subject 701, male, Day 1, hour 0.75, LLQ 2 ng/mL) 2.84 ng/mL; (male, New Zealand White Hra:(NZW)SPF, rabbit, plasma, intramuscular, 0.3 mg, Concentration (ng/mL), plasma epinephrine, Group 7, dose 0.3 mg, subject 703, male, Day 1, hour 0.75, LLQ 1 ng/mL) 5.36 ng/mL. This molecule showed a concentration at 1 h (male, New Zealand White Hra:(NZW)SPF, rabbit, plasma, intramuscular, 0.3 mg, Concentration (ng/mL), plasma epinephrine, Group 7, dose 0.3 mg, subject 701, male, Day 1, hour 1, LLQ 2 ng/mL) of 3.1 ng/mL; a concentration at 1 h (male, New Zealand White Hra:(NZW)SPF, rabbit, plasma, intramuscular, 0.3 mg, Concentration (ng/mL), plasma epinephrine, Group 7, dose 0.3 mg, subject 703, male, Day 1, hour 1, LLQ 1 ng/mL) of 5.17 ng/mL; a concentration at 1 h (male, New Zealand White Hra:(NZW)SPF, rabbit, plasma, other: sublingual/buccal tablet, 35 mg, Concentration (ng/mL), plasma epinephrine, Group 2, dose 35 mg, subject 306, male, Day 1, hour 1, LLQ 2 ng/mL) of 10.6 ng/mL. This molecule also came in with a concentration at 0.333 h (male, New Zealand White Hra:(NZW)SPF, rabbit, plasma, intramuscular, 0.3 mg, Concentration (ng/mL), plasma epinephrine, Group 7, dose 0.3 mg, subject 703, male, Day 1, hour 0.333, LLQ 1 ng/mL) of 3.78 ng/mL.

For the origin of these results see patent publication US12042472B2 (pHase Pharmaceuticals LLC, priority 2017, dated 2024).
